Starred links: 1 amine or outer side, 2 acyl side, 3 side chain; linkers in the order of their positions; H or OH if unused. Non-standard residues stand in square brackets, D forms with d. Groups on a side chain read outwards from the residue. *: point of attachment. C18 diacid = O=C(O)CCCCCCCCCCCCCCCCC(=O)*; αMePhe(2-F) = C[C@](N)(Cc1ccccc1F)C(=O)O; γGlu = O=C(O)[C@H](CCC(=O)[*:2])N[*:1]; αMe4Pal = C[C@](N)(Cc1ccncc1)C(=O)O; αMeY = C[C@](N)(Cc1ccc(O)cc1)C(=O)O; 4Pal = N[C@@H](Cc1ccncc1)C(=O)O; αMeL = CC(C)C[C@](C)(N)C(=O)O; αMeS = C[C@](N)(CO)C(=O)O; Orn = NCCC[C@H](N)C(=O)O; AEEA = NCCOCCOCC(=O)O; Aib = CC(C)(N)C(=O)O
Tests used:
hGLP-1R [1] = molecular target: T1, hGLP-1R (Homo sapiens, UniProt P43220); test: Functional cAMP activation in the presence of 0.1% casein (no HSA); assay type: cell-based; details: read-out: Relative cAMP EC50, hGLP-1R;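 further: intracellular cAMP rise after 30 min at 37 °C read by HTRF, normalized between buffer only (0%) and maximal control ligand (100%), four-parameter variable-slope fit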
[2] = Pepsin stability assay in simulated gastric fluid; assay type: in vitro ADME; details: pH 1.2, % Intact (SD)
Experimental: A pepsin stability assay is utilized to determine the relative stability of Example polypeptides in a simulated gastric proteolytic environment. […] The relative amount of intact peptide is quantified by mass spectrometry (MS). […] The examples were dissolved in 50 mM Tris buffer pH 8.0 at a concentration of 10 mg/mL as a stock solution. Pepsin A was reconstituted in SGF at 10 mg/mL. […] The example peptide and pepsin solutions were then incubated at 37° C. in a shaking incubator set at 100 rpm. Samples (25 μL) were withdrawn at different time intervals and quenched with 100 mM ammonium bicarbonate pH 9 (50 μL) to stop proteolytic activity. All samples were centrifuged, and the supernatants were analyzed by LC/MS to determine the remaining intact peptide.

human GLP1-R = human GLP1-R (Homo sapiens, UniProt P43220); test: GLP1-R internalization assay in HEK293 cells; assay type: cell-based; details: for EC50: HEK293 cells expressing SNAP-GLP-1R, read-out: GLP1R Internalization EC50; for Internalization % TOP: normalized to maximum concentration of GLP-1 (100%)
hGcgR = hGcgR (Homo sapiens, UniProt P47871); test: Functional cAMP activation in the presence of 0.1% casein (no HSA); assay type: cell-based; details: read-out: Relative cAMP EC50, hGcgR;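 further: intracellular cAMP rise after 30 min at 37 °C, read by HTRF against a cAMP standard curve, scaled from buffer only (0%) to maximal control ligand response (100%)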
in vivo [3] = test: in vivo; set-up: species or system cynomolgus monkeys; details: both sexes, cynomolgus monkey, iv, 10 nmol/kg
Experimental: (§1) A study is designed to evaluate the oral bioavailability of Example polypeptides in cynomolgus monkeys. […] Standards and controls are prepared in cynomolgus monkey plasma, and any dilutions required to bring samples into the quantitative range are also performed in control cynomolgus monkey plasma. To control assay variability, an internal standard (IS) is added to all the standards and samples. The Examples and IS are extracted from 100% monkey plasma (50 μL) by protein precipitation using isopropyl alcohol and methanol (50:50 v/v). The samples are then centrifuged (3000 rpm for 10 minutes) and the supernatant is transferred to a Siricco Protein Precipitation Plate. The samples are loaded on a Sep-Pak tC18 SPE microelution plate that is conditioned with 2% formic acid in acetonitrile and water. The compounds are then washed with 2% formic acid in water and eluted using 2% formic acid in acetonitrile into a plate containing 5× Invitrosol and 1% formic acid in water prior to injecting an aliquot (10 μL) on to Xselect CSH C18, 3.5 μm, 2.1×20 mm for LC/MS analysis.
Blood samples are collected over 504 hours. Plasma is harvested from blood samples by centrifugation and stored frozen (−70° C.) until analysis. Plasma concentrations of the molecules are detected using the bioanalytical method described above.

in vivo [4] = test: in vivo; set-up: species or system cynomolgus monkeys; details: both sexes, cynomolgus monkey, po; for bioavailability: 10 mg; for AUC(0-inf) / CL/F / Cmax / Tmax / half-life: 300 mg
Experimental: as §1
[…] Blood samples are collected up to 504 hours post-dose. Plasma is harvested from blood samples by centrifugation and stored frozen (−70° C.) until analysis. Plasma concentrations of the molecules are detected using the bioanalytical method described above.

hGIPR [5] = molecular target: T2, hGIPR (Homo sapiens, UniProt P48546); test: Functional cAMP activation in the presence of 0.1% casein (no HSA); assay type: cell-based; details: read-out: Relative cAMP EC50, hGIPR;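 further: intracellular cAMP rise after 30 min at 37 °C read by HTRF against a standard curve, scaled between buffer alone (0%) and top control ligand concentration (100%), four-parameter fit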
T2 sequence (P48546 22-466): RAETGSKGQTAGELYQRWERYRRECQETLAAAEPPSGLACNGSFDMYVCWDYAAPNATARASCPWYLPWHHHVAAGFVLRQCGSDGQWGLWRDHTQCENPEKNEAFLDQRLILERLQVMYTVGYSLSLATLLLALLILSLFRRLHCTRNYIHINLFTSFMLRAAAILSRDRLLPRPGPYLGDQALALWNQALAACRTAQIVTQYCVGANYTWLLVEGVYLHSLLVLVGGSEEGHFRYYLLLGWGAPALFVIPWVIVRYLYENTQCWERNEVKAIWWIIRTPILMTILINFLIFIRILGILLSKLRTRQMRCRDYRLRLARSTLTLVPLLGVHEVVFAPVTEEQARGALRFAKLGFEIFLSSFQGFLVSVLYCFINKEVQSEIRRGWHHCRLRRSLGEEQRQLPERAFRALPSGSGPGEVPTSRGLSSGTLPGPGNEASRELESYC

hGIPR [6] = molecular target: T2, hGIPR; test: Functional cAMP activity in the presence of 1% HSA; assay type: cell-based; details: read-out: cAMP Rel EC50, hGIPR
hGLP-1R [7] = molecular target: T1, hGLP-1R; test: Functional cAMP activity in the presence of 1% HSA; assay type: cell-based; details: read-out: cAMP Rel EC50, hGLP-1R
[8] = test system: Intestinal organoid from Göttingen minipig jejunum tissue, 2D monolayer; test: Cell based in vitro permeability (Papp) assay; assay type: in vitro ADME
Procedure, shortened: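 2D monolayers derived from Göttingen minipig jejunal organoids on transwell inserts. Basal samples collected at 20 min in the presence of C10. Peptide in apical and basal compartments quantified by LC/MS to give Papp.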

[9] = Body weight in diet-induced obese C57BL/6 mice; assay type: in vivo; details: 10 nmol/kg SC QD, percent of starting weight, DIO mice, mean ± SEM n=5
Procedure, shortened: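 Male C57BL/6 DIO mice (41-50 g, 5 per group, randomized by weight) on calorie-rich diet received subcutaneous doses 30-90 min before dark onset, QD or Q3D for 9-16 days. Body weight measured daily, expressed as percent of starting weight, mean±SEM.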

human GcgR = human GcgR (Homo sapiens, UniProt P47871); test: Functional cAMP activity in the presence of 1% HSA; assay type: cell-based; details: read-out: cAMP Rel EC50, hGcgR
Sequence of human GcgR (P47871 26-477): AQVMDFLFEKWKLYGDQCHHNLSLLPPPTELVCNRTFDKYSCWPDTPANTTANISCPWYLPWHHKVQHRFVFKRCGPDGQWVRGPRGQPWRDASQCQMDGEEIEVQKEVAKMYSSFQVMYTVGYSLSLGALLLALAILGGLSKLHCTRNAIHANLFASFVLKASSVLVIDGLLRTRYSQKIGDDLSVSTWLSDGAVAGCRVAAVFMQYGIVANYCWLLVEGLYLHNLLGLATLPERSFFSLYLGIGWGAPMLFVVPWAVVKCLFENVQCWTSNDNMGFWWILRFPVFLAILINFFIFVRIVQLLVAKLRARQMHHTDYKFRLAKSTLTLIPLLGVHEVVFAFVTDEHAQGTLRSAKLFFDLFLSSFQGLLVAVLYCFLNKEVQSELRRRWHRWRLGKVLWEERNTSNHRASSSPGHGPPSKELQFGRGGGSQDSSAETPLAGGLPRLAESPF

Sequence of hGcgR (P47871 26-477): as above
T1 sequence (P43220 24-463): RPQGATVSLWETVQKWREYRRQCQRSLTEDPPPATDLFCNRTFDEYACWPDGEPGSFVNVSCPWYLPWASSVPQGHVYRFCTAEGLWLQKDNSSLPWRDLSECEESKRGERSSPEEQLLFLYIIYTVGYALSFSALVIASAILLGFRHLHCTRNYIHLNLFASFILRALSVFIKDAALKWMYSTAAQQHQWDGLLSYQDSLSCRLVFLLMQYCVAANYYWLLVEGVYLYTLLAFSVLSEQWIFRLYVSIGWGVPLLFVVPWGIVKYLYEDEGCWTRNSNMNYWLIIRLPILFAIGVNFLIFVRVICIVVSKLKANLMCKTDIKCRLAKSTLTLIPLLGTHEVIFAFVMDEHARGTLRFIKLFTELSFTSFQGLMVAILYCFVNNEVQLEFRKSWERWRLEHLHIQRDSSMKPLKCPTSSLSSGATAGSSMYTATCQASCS
Sequence of human GLP1-R (P43220 24-463): as above

Molecule	EC50 (hGLP-1R [1])	remaining at 0.25 h, 0.4 mg/mL [2]	EC50 (human GLP1-R)	Internalization % TOP (human GLP1-R)	EC50 (hGcgR)	AUC(0-inf) (in vivo [3])	clearance (in vivo [3])	half-life (in vivo [3])	bioavailability (in vivo [4])	AUC(0-inf) (in vivo [4])	CL/F (in vivo [4])	Cmax (in vivo [4])	Tmax (in vivo [4])	half-life (in vivo [4])	EC50 (hGIPR [5])	EC50 (hGIPR [6])	EC50 (hGLP-1R [7])	Relative Papp (Compared to internal standard) [8]	Body weight (%) ([9]; 14 days)	EC50 (human GcgR)	further results
CC[C@H](C)[C@H](NC(=O)[C@H](CC(C)C)NC(=O)[C@](C)(Cc1ccc(O)cc1)NC(=O)[C@@H](CCC(=O)O)NC(=O)[C@@H](NC(=O)[C@H](Cc1ccccc1)NC(=O)[C@H](CCC(=O)O)NC(=O)[C@](C)(Cc1ccncc1)NC(=O)[C@H](CCC(N)=O)NC(=O)[C@H](C)NC(=O)[C@H](CCCCNC(=O)COCCOCCNC(=O)CC[C@H](NC(=O)CCCCCCCCCCCCCCCCC(=O)O)C(=O)O)NC(=O)[C@H](CCCN)NC(=O)[C@H](CC(=O)O)NC(=O)[C@H](CC(C)C)NC(=O)[C@](C)(CC(C)C)NC(=O)[C@@H](NC(=O)[C@](C)(CO)NC(=O)[C@H](Cc1ccncc1)NC(=O)[C@H](CC(=O)O)NC(=O)[C@H](CO)NC(=O)[C@@H](NC(=O)[C@](C)(Cc1ccccc1F)NC(=O)[C@@H](NC(=O)CNC(=O)[C@H](CCC(N)=O)NC(=O)C(C)(C)NC(=O)[C@@H](N)Cc1ccc(O)cc1)[C@@H](C)O)[C@@H](C)O)[C@@H](C)CC)[C@@H](C)CC)C(=O)N[C@@H](CCC(=O)O)C(=O)NCC(=O)NCC(=O)N1CCC[C@H]1C(=O)N[C@@H](CO)C(=O)N[C@@H](CO)C(=O)NCC(=O)N[C@@H](C)C(=O)N1CCC[C@H]1C(=O)N1CCC[C@H]1C(=O)N1CCC[C@H]1C(=O)N[C@@H](CO)C(=O)NCC(=O)N[C@@H](CO)C(N)=O [Example 699]	0.196 nM	97.9%	14.9 nM	102%	1.35 nM	9.23 ± 1.64 µM·h	0.0185 mL/min/kg	50.8 ± 13.7 h	1.3%	7.15 µM·h	1.51 mL/min/kg	187 nM	2.75 h	34.3 h	0.00663 nM	0.566 nM	25.3 nM	0.51	56.85 ± 2.42 %	144 nM	Body weight (%) ([9]; 7 days): 68.34 ± 0.85 %
H-Y[Aib]QGT[αMePhe(2-F)]TSD[4Pal][αMeS]I[αMeL]LD[Orn]K([AEEA-γGlu-C18 diacid])AQ[αMe4Pal]EFI[dE][αMeY]LIEGGPSSGAPPPSGGGE-NH2 [Example 741]	0.239 nM	111%	50.1 nM		2.01 nM	9.55 ± 2.28 µM·h	0.0182 mL/min/kg	32.1 ± 4.22 h	0.8%	4.2 µM·h	2.28 mL/min/kg	95.8 nM	3.75 h	58.1 h	0.00612 nM	0.817 nM	32.4 nM		59.42 ± 2.94 %	200 nM	remaining at 0.5 h, 0.4 mg/mL [2]: 104%; remaining at 1 h, 0.4 mg/mL [2]: 105%
H-Y[Aib]QGT[αMePhe(2-F)]TSD[4Pal][αMeS]I[αMeL]LD[Orn]K([AEEA-γGlu-C18 diacid])AQ[αMe4Pal]EFI[dE][αMeY]LIEGGPSSGAPPPSGSE-NH2 [Example 712]	0.258 nM	92.4%	35.3 nM	109%	1.36 nM	12.4 ± 0.862 µM·h	0.0135 mL/min/kg	54 ± 6.09 h	0.9%	6.18 µM·h	1.85 mL/min/kg	124 nM	3.75 h	51.8 h	0.00689 nM	0.584 nM	30.8 nM	0.60	63.61 ± 3.73 %	171 nM	remaining at 0.5 h, 0.4 mg/mL [2]: 91.4%; remaining at 1 h, 0.4 mg/mL [2]: 93.5%; Body weight (%) ([9]; 7 days): 69.4 ± 0.60 %
H-Y[Aib]QGT[αMePhe(2-F)]TSD[4Pal]SI[αMeL]LD[Orn]K([γGlu-γGlu-C18 diacid])AQ[αMe4Pal][Orn]FI[dE][αMeY]LIEGGPSSGEPPPETE-NH2 [Example 686]	0.298 nM		33.2 nM	101%	2.43 nM	7.04 ± 1.29 µM·h	0.0243 mL/min/kg	41.5 ± 2.35 h	3.6%	14.2 µM·h	2.93 mL/min/kg	249 nM	1 h	44.6 h	0.00776 nM	0.542 nM	19.1 nM	0.60	72.73 ± 3.65 %	169 nM	
H-Y[Aib]QGT[αMePhe(2-F)]TSD[4Pal]SILLDKK([γGlu-γGlu-C18 diacid])AQ[Aib]AFIEYLEEGGPSSGAPPPSGTGE-NH2 [Example 510]	0.71 nM		11.8 nM	113%	5.44 nM	14.5 ± 3.42 µM·h	0.0119 mL/min/kg	55.9 ± 13.2 h	0.7%	5.09 µM·h	5.17 mL/min/kg	126 nM	2 h	47 h	0.0627 nM	6.4 nM	74.2 nM			564 nM	
H-Y[Aib]QGT[αMePhe(2-F)]TSD[4Pal][αMeS]I[αMeL]LD[Orn]K([AEEA-γGlu-C18 diacid])AQ[αMe4Pal]EFI[dE][αMeY]LVEGGPSSGAPPPSGS-NH2 [Example 694]	0.253 nM	101%	21.8 nM	97.3%	2.04 nM	10.7 ± 2.75 µM·h	0.0163 mL/min/kg	50.7 ± 16.8 h	2.4%	14.8 µM·h	0.873 mL/min/kg	353 nM	3.5 h	50.7 h	0.00781 nM	0.787 nM	25 nM	0.60	69.77 ± 2.96 %	206 nM	Body weight (%) ([9]; 7 days): 71.92 ± 1.28 %
H-Y[Aib]QGT[αMePhe(2-F)]TSD[4Pal][αMeS]ILLD[Orn]K([γGlu-γGlu-C18 diacid])AQ[Aib][Orn]FI[dE]YLIEGGPSSGEPPPSGTGE-NH2 [Example 548]	0.478 nM		17.8 nM	109%	3.94 nM	10.5 ± 1.58 µM·h	0.0162 mL/min/kg	53.2 ± 0.603 h	0.6%	3.58 µM·h	2.7 mL/min/kg	75.7 nM	1.5 h	45 h	0.0547 nM	3.48 nM	38 nM			295 nM	
